This is an account of results in paper PMC12131194, “Rational design, synthesis, and evaluation of novel polypharmacological compounds targeting NaV1.5, KV1.5, and K2P channels for atrial fibrillation” (The Journal of Biological Chemistry, 2025).

The structures appear in SMILES notation.

For the assay, the system named is human atrial cardiomyocytes from patients with AF. Briefly: Patch-clamp action potential recordings, atrial cardiomyocytes of atrial fibrillation patients. Format: cell-based. The procedure:
A total of 10 patients with sinus rhythm (SR) (N = 5) or atrial fibrillation (AF) (N = 5) undergoing open heart surgery for coronary artery bypass grafting, heart valve replacement or heart transplantation were included in the study (Table S7). A written informed consent was given by all patients. The study protocol involving human tissue samples was approved by the responsible Ethics Committee of the Medical Faculty of Heidelberg University (Germany; S-017/2013) and was conducted in accordance with the 1964 Declaration of Helsinki.
The right atrial human tissue samples were transported in chilled Ca^2+-free solution (100 mM NaCl, 10 mM KCl, 1.2 mM KH2PO4, 5 mM MgSO4, 50 mM taurine, 5 mM 3-(N-morpholino)propanesulfonic acid (MOPS), 30 mM 2,3-butanedione monoxime and 20 mM glucose, pH 7.0 with NaOH). After dissection into small chunks, the samples were rinsed for 5 minutes with calcium-free Tyrode's solution, which was oxygenated with 100% O2 at 37 °C. The samples were then digested with collagenase type I (288 U/ml; Worthington) and protease type XXIV (5 mg/ml; Sigma-Aldrich, Steinheim, Germany) for 10 to 15 min, followed by an increase in calcium concentration to 0.2 mM. After an additional 35 min of agitation in protease-free solution, rod-shaped single cardiomyocytes were harvested. The suspension was centrifuged, and the cells were resuspended in storage (“Kraftbrühe”, KB) medium (20 mM KCl, 10 mM KH2PO4, 25 mM glucose, 40 mM D-Mannitol, 70 mM K glutamate, 10 mM β-hydroxybutyrate, 20 mM taurine, 10 mM ethylene glycol tetraacetic acid (EGTA), and 1% albumin) until usage in patch-clamp experiments.
Patch-clamp glass pipettes were fabricated from borosilicate glass (1B120F-4; World Precision Instruments). After back-filling with patch-clamp internal solution (134 mM K gluconate, 6 mM NaCl, 1.2 mM MgCl2, 1 mM Mg-ATP, 10 mM HEPES, pH 7.2 with KOH), tip resistances ranged from 5 to 10 MΩ. All experiments were carried out at room temperature under constant superfusion with patch-clamp extracellular solution containing 137 mM NaCl, 5.4 mM KCl, 1 mM MgCl2, 2 mM CaCl2, 10 mM HEPES, 10 mM glucose (pH 7.3 with NaOH). AP-recordings were performed in current clamp mode: The holding current was adjusted such that the cell’s resting membrane potential was approximately −70 mV at baseline. APs were induced by short (5 ms) depolarizing current pulses at a rate of 0.5 Hz. Data was not adjusted for potential differences caused by liquid junctions, and no leak subtraction was performed.
Data acquisition and analysis were performed using the pCLAMP10 software (Axon Instruments) and statistical analysis was done using Prism 8 (GraphPad Software). Data is presented as the mean ± standard error of the mean (SEM). Statistical comparisons were made using Dunnett’s post hoc test. A p value of < 0.05 was considered significant.
A general note: Patch clamp records ionic current or voltage across a cell membrane.

For `CCCCN(CCCC)CC(=O)Nc1ccc(OC)cc1OC` [Compound 6f, 2-(dibutylamine)-N-(2,4-dimethoxiphenyl)acetamide], for the setting “AF, 6.25 μM”, the APD50 vs baseline result is on record as “increase in ADP50 with 6.25 μM 6f was significant”. Further, where the note is “AF, 1, 6.25 and 12.5 μM”, the APD50 vs baseline entry is “concentration-dependent prolongation trend”, the APD90 vs baseline result is “concentration-dependent prolongation trend”, the “Action potential amplitude (APA) vs baseline” value is “no changes” and the “Maximal upstroke velocity vs baseline” value is listed as “no changes”. Besides, for the setting “AF, 1, 6.25 and 12.5 μM”, the “Resting membrane potential (RMP)” value is “significant concentration-dependent shift in the RMP to more negative values”.
